How the values were obtained:
recombinant human MAO-B = target: T1, recombinant human MAO-B (Homo sapiens, UniProt P27338); assay: Human MAO-B inhibitory assay (kynuramine, fluorescence of 4-hydroxyquinoline); type: biochemical; settings: for Ki: from IC50 by Cheng–Prusoff, Km 22.7 μM; for Si MAO-B (selectivity index between MAO-A and MAO-B): ratio of Ki values; for Isoform selectivity from the selectivity index, MAO-B: based on Si; for IC50: recombinant human MAO-B, kynuramine, pH 7.4, 37 °C, 20 min, mean ± SD
T1 construct: purchased Sigma-Aldrich
T1 sequence (P27338 1-520): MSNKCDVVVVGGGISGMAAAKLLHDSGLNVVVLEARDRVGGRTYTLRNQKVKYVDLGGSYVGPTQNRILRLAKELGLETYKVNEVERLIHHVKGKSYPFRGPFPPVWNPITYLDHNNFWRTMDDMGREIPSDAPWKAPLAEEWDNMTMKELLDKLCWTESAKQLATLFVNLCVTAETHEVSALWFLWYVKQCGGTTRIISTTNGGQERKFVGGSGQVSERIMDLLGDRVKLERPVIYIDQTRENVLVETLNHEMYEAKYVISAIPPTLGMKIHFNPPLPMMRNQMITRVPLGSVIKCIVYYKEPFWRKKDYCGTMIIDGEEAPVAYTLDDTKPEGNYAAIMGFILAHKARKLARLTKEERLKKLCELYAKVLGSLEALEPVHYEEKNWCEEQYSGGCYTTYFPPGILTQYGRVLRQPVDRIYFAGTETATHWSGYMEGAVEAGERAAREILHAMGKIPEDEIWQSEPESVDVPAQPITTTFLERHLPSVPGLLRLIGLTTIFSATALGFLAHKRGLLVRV
Method: (§1) The crude ethanol extract of A. philoxeroides, together with its constituents, alternanthin (1a), althernanthin B (1b), torosaflavone E (3a), dimethyltorosaflavone D (3b) and chrysoeriol 7-rhamnoside (5) were tested for their inhibitory activity on MAO-A and MAO-B, using the recombinant human MAO-A and MAO-B. The rates of MAO catalysis was determined by measuring the production of 4-hydroxyquinoline by fluorescence spectrophotometry. […] For this purpose, Km values for the oxidation of kynuramine by MAO-A and MAO-B were used from previous studies, i.e., 16.1 μM for human MAO-A and 22.7 μM for human MAO-B [15].
(§2) The MAOs inhibitory activity assay of the A. philoxeroides extract and some of its flavonoid constituents, using recombinant human MAO-A and MAO-B (Sigma-Aldrich, St. Louis, MO, USA) as enzyme sources, was performed according to the method described by Manley-King et al.. Briefly, the crude extract 100 mg was dissolved in 400 µL DMSO to prepare 250 mg/mL as a stock solution. Serial dilution of test samples (20 µL) for each concentration was used to test the activity. For 1a, 1b, 3a, 3b and 5, a stock solution of 1000 μM in DMSO was prepared and a serial dilution of the test sample (20 μL) of each concentration was used to test the activity. Concentration of MAOs was 0.0075 mg/mL for MAO-A inhibitor test, 9 µL of kynuramine (Sigma-Aldrich, St. Louis, MO, USA) was mixed with 469.5 µL of potassium phosphate buffer (pH 7.4). For MAO-B inhibitor test, 6 µL of kynuramine was mixed with 472.5 µL of potassium phosphate buffer (pH 7.4). Then 1.5 µL of the enzymes were added before incubation at 37 °C for 20 min. The reaction was stopped by adding 400 µL of 2N NaOH and 1000 µL of water. Measurement of 4-hydroxyquinoline (Sigma-Aldrich, St. Louis, MO, USA) was carried out by fluorescence spectrophotometry with the excitation wavelength at 310 nm and the emission wavelength at 400 nm. […] Data were analyzed by Prism 5 software package (GraphPad Software, version 5, San Diego, CA, USA). The IC50 values were converted to the corresponding Ki values according to the equation Ki = IC50/(1+[S]/Km).

recombinant human MAO-A = target: T2, recombinant human MAO-A (Homo sapiens, UniProt P21397); assay: Human MAO-A inhibitory assay (kynuramine, fluorescence of 4-hydroxyquinoline); type: biochemical; settings: for Ki: from IC50 by Cheng–Prusoff, Km 16.1 μM; for Si MAO-A (selectivity index between MAO-A and MAO-B): ratio of Ki values; for IC50: recombinant human MAO-A, kynuramine, pH 7.4, 37 °C, 20 min, mean ± SD
T2 construct: purchased Sigma-Aldrich
T2 sequence (P21397 1-527): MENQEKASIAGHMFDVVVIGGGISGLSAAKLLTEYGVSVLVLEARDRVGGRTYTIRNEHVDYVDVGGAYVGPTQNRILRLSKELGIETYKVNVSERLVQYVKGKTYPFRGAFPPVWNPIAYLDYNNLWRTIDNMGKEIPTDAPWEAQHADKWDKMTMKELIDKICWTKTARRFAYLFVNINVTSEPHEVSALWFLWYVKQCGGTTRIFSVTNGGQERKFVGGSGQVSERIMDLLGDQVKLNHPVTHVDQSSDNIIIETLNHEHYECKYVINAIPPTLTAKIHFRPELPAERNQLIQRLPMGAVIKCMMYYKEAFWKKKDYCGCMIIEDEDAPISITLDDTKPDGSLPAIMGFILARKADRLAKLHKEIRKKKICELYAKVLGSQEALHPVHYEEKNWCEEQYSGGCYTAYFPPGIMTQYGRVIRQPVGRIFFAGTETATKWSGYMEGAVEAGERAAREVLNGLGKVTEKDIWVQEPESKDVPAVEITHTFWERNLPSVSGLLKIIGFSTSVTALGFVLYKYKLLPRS
Method: as §1, §2

Structure (SMILES): COc1cc(-c2cc(=O)c3c(O)c([C@H]4C[C@H](O)[C@@H](O)[C@@H](C)O4)c(O)cc3o2)ccc1O [Compound 1a, altheranthin]
- Ki (recombinant human MAO-B): 0.00026 µM
- Si MAO-B (selectivity index between MAO-A and MAO-B) (recombinant human MAO-B): 2.1364
- Isoform selectivity from the selectivity index, MAO-A (recombinant human MAO-A; based on Si): partially selective for MAO-A isoform
- Ki (recombinant human MAO-A): 0.00012 µM
- Si MAO-A (selectivity index between MAO-A and MAO-B) (recombinant human MAO-A): 0.4681

Structure (SMILES): C[C@H]1O[C@@H](c2c(O)cc3oc(-c4ccc(O)c(O)c4)cc(=O)c3c2O)C[C@H](O)[C@H]1O [Compound 1b, alternanthin B]
- Isoform selectivity from the selectivity index, MAO-B (recombinant human MAO-B): partially selective for MAO-B isoform
- Ki (recombinant human MAO-B): 0.0001 µM
- Si MAO-B (selectivity index between MAO-A and MAO-B) (recombinant human MAO-B): 0.1764
- Ki (recombinant human MAO-A): 0.00054 µM
- Si MAO-A (selectivity index between MAO-A and MAO-B) (recombinant human MAO-A): 5.6681
- IC50 (recombinant human MAO-A): 0.00206 µM

Structure (SMILES): COc1cc(-c2cc(=O)c3c(O)c(/C=C/C(=O)O)c(O)cc3o2)ccc1O [Compound 3a, torosaflavone E]
- Isoform selectivity from the selectivity index, MAO-B (recombinant human MAO-B): partially selective for MAO-B isoform
- Ki (recombinant human MAO-B): 0.29 µM
- Si MAO-B (selectivity index between MAO-A and MAO-B) (recombinant human MAO-B): 0.0601
- IC50 (recombinant human MAO-B): 0.675 ± 0.46 µM
- Ki (recombinant human MAO-A): 4.84 µM
- Si MAO-A (selectivity index between MAO-A and MAO-B) (recombinant human MAO-A): 16.6534
- IC50 (recombinant human MAO-A): 18.4 ± 1.47 µM
- melting point: 250 to 252 °C

Structure (SMILES): O=C(O)/C=C/c1c(O)cc2oc(-c3ccc(O)c(O)c3)cc(=O)c2c1O [Compound 3b, demethyltorosaflavone D]
- Isoform selectivity from the selectivity index, MAO-B (recombinant human MAO-B): partially selective for MAO-B isoform
- Ki (recombinant human MAO-B): 0.0557 µM
- Si MAO-B (selectivity index between MAO-A and MAO-B) (recombinant human MAO-B): 0.4193
- IC50 (recombinant human MAO-B): 0.129 µM
- Ki (recombinant human MAO-A): 0.133 µM
- Si MAO-A (selectivity index between MAO-A and MAO-B) (recombinant human MAO-A): 2.3850

Structure (SMILES): COc1cc(-c2cc(=O)c3c(O)cc(O[C@@H]4O[C@@H](C)[C@H](O)[C@@H](O)[C@H]4O)cc3o2)ccc1O [Compound 5, chrysoeriol 7-O-rhamnoside]
- Isoform selectivity from the selectivity index, MAO-B (recombinant human MAO-B): partially selective for MAO-B isoform
- Ki (recombinant human MAO-B): 0.234 µM
- Si MAO-B (selectivity index between MAO-A and MAO-B) (recombinant human MAO-B): 0.2915
- IC50 (recombinant human MAO-B): 0.544 ± 0.33 µM
- Ki (recombinant human MAO-A): 0.804 µM
- Si MAO-A (selectivity index between MAO-A and MAO-B) (recombinant human MAO-A): 3.4303
- IC50 (recombinant human MAO-A): 3.05 ± 0.35 µM

— article PMC6225253, “Chemical Constituents and Antidepressant-Like Effects in Ovariectomized Mice of the Ethanol Extract of Alternanthera philoxeroides” (Molecules : A Journal of Synthetic Chemistry and Natural …, 2018)
